Data as given in ChEMBL document CHEMBL1671859, “bla(IMP-4) in different genetic contexts in Enterobacteriaceae isolates from Australia” (2008).
Converted amounts (≈) assume the structure as drawn.

Tests used:
Assay type in all cases: functional
Citrobacter youngae = test: Antibacterial activity against Citrobacter youngae isolate CyB38 harboring blaIMP-4-qacG2-aacA4-catB3 array by Etest method
Citrobacter amalonaticus [1] = test: Antibacterial activity against Citrobacter amalonaticus isolate Ca3927 harboring IncL/M plasmid and blaIMP-4-qacG2-aacA4-catB3 array by Etest method
Serratia marcescens [2] = test: Antibacterial activity against Serratia marcescens isolate Sm2723 harboring IncL/M plasmid and blaIMP-4-qacG2-aacA4-catB3 array by Etest method
Citrobacter amalonaticus [3] = test: Antibacterial activity against Citrobacter amalonaticus isolate Ca38009 harboring IncL/M plasmid and blaIMP-4-qacG2-aacA4-catB3 array by Etest method
Morganella morganii [4] = test: Antibacterial activity against Morganella morganii isolate Mm38009 harboring IncL/M plasmid and blaIMP-4-qacG2-aacA4-catB3 array by Etest method
Escherichia coli [5] = test: Antibacterial activity against Escherichia coli isolate Ec9381 harboring IncL/M plasmid and blaIMP-4-qacG2-aacA4-catB3 array by Etest method
Morganella morganii [6] = test: Antibacterial activity against Morganella morganii isolate Mm1229 harboring IncL/M plasmid and blaIMP-4-qacG2-aacA4-catB3 array by Etest method
Klebsiella oxytoca [7] = test: Antibacterial activity against Klebsiella oxytoca isolate Ko0426 harboring IncL/M plasmid and blaIMP-4-qacG2-aacA4-catB3 array by Etest method
Klebsiella oxytoca [8] = test: Antibacterial activity against Klebsiella oxytoca isolate Ko1156 harboring IncL/M plasmid and blaIMP-4-qacG2-aacA4-catB3 array by Etest method
Citrobacter amalonaticus [9] = test: Antibacterial activity against Citrobacter amalonaticus isolate Ca1614 harboring IncL/M plasmid and blaIMP-4-qacG2-aacA4-catB3 array by Etest method
Citrobacter freundii = test: Antibacterial activity against Citrobacter freundii isolate Cf1614 harboring IncL/M plasmid and blaIMP-4-qacG2-aacA4-catB3 array by Etest method
Morganella morganii [10] = test: Antibacterial activity against Morganella morganii isolate Mm1614 harboring IncL/M plasmid and blaIMP-4-qacG2-aacA4-catB3 array by Etest method
Escherichia coli [11] = test: Antibacterial activity against Escherichia coli isolate Ec158 harboring IncA/C plasmid and blaIMP-4-qacG2-aacA4-catB3 array by Etest method
Serratia marcescens [12] = test: Antibacterial activity against Serratia marcescens isolate Sm220 harboring IncA/C plasmid and blaIMP-4-qacG2-aacA4-catB3 array by Etest method
Serratia marcescens [13] = test: Antibacterial activity against Serratia marcescens isolate Sm201 harboring IncA/C plasmid and blaIMP-4-qacG2-aacA4-catB3 array by Etest method
Serratia marcescens [14] = test: Antibacterial activity against Serratia marcescens isolate Sm203 harboring IncA/C plasmid and blaIMP-4-qacG2-aacA4-catB3 array by Etest method
Escherichia coli [15] = test: Antibacterial activity against Escherichia coli isolate Ec211 harboring IncA/C plasmid and blaIMP-4-qacG2-aacA4-catB3 array by Etest method
Serratia marcescens [16] = test: Antibacterial activity against Serratia marcescens isolate Sm211 harboring IncA/C plasmid and blaIMP-4-qacG2-aacA4-catB3 array by Etest method
Citrobacter koseri = test: Antibacterial activity against Citrobacter koseri isolate Ck211 harboring IncA/C plasmid and blaIMP-4-qacG2-aacA4-catB3 array by Etest method
Escherichia coli [17] = test: Antibacterial activity against Escherichia coli isolate Ec221 harboring IncA/C plasmid and blaIMP-4-qacG2-aacA4-catB3 array by Etest method
Klebsiella oxytoca [18] = test: Antibacterial activity against Klebsiella oxytoca isolate Ko238 harboring IncA/C plasmid and blaIMP-4-qacG2-aacA4-catB3 array by Etest method
Serratia marcescens [19] = test: Antibacterial activity against Serratia marcescens isolate Sm265 harboring IncA/C plasmid and blaIMP-4-qacG2-aacA4-catB3 array by Etest method
Acinetobacter = test: Antibacterial activity against Acinetobacter isolate A74510 harboring blaIMP-4-qacG2-aacA4-catB3 array by Etest method
Acinetobacter baumannii = test: Antibacterial activity against Acinetobacter baumannii isolate AbN450 harboring […]-qacG2-aacA4-catB3 array by Etest method
Klebsiella pneumoniae [20] = test: Antibacterial activity against Klebsiella pneumoniae isolate Kp1239 harboring IncL/M plasmid and blaIMP-4-qacG2-aacA4-catB3 array by Etest method
Klebsiella pneumoniae [21] = test: Antibacterial activity against Klebsiella pneumoniae isolate Kp1945 harboring IncL/M plasmid and blaIMP-4-qacG2-aacA4-catB3 and dfrA12-orfF-aadA2 arrays by Etest method
Klebsiella pneumoniae [22] = test: Antibacterial activity against Klebsiella pneumoniae isolate Kp2730 harboring IncL/M plasmid and blaIMP-4-qacG2-aacA4-catB3 and dfrA12-orfF-aadA2 arrays by Etest method
Klebsiella pneumoniae [23] = test: Antibacterial activity against Klebsiella pneumoniae isolate Kp7564 harboring IncL/M plasmid and blaIMP-4-qacG2-aacA4-catB3 array by Etest method
Klebsiella pneumoniae [24] = test: Antibacterial activity against Klebsiella pneumoniae isolate Kp38009 harboring IncL/M plasmid and blaIMP-4-qacG2-aacA4-catB3 array by Etest method
Klebsiella pneumoniae [25] = test: Antibacterial activity against Klebsiella pneumoniae isolate Kp38045 harboring IncL/M plasmid and blaIMP-4-qacG2-aacA4-catB3 array by Etest method
Klebsiella pneumoniae [26] = test: Antibacterial activity against Klebsiella pneumoniae isolate Kp3799 harboring IncL/M plasmid and blaIMP-4-qacG2-aacA4-catB3 array by Etest method
Klebsiella pneumoniae [27] = test: Antibacterial activity against Klebsiella pneumoniae isolate Kp4614
Klebsiella pneumoniae [28] = test: Antibacterial activity against Klebsiella pneumoniae isolate Kp149 harboring IncA/C plasmid and blaIMP-4-qacG2-aacA4-catB3 array by Etest method
Klebsiella pneumoniae [29] = test: Antibacterial activity against Klebsiella pneumoniae isolate Kp211 harboring IncA/C plasmid and blaIMP-4-qacG2-aacA4-catB3 array by Etest method
Klebsiella pneumoniae [30] = test: Antibacterial activity against Klebsiella pneumoniae isolate Kp266 harboring IncA/C plasmid and blaIMP-4-qacG2-aacA4-catB3 array by Etest method
Klebsiella pneumoniae [31] = test: Antibacterial activity against Klebsiella pneumoniae isolate Kp204 harboring IncA/C plasmid and blaIMP-4-qacG2-aacA4-catB3 array by Etest method

O=C(O)c1cn(C2CC2)c2cc(N3CCNCC3)c(F)cc2c1=O [CIPROFLOXACIN]
MIC (Citrobacter youngae): > 2 µg/mL | MIC (Citrobacter amalonaticus [1]): ≤ 0.5 µg/mL | MIC (Serratia marcescens [2]): > 2 µg/mL | MIC (Citrobacter amalonaticus [3]): ≤ 0.5 µg/mL | MIC (Morganella morganii [4]): ≤ 0.5 µg/mL | MIC (Escherichia coli [5]): ≤ 0.5 µg/mL | MIC (Morganella morganii [6]): ≤ 0.5 µg/mL | MIC (Klebsiella oxytoca [7]): ≤ 0.5 µg/mL | MIC (Klebsiella oxytoca [8]): ≤ 0.5 µg/mL | MIC (Citrobacter amalonaticus [9]): ≤ 0.5 µg/mL | MIC (Citrobacter freundii): ≤ 0.5 µg/mL | MIC (Morganella morganii [10]): ≤ 0.5 µg/mL | MIC (Escherichia coli [11]): ≤ 0.5 µg/mL | MIC (Serratia marcescens [12]): 2 µg/mL (≈ 6.04 µM) | MIC (Serratia marcescens [13]): > 2 µg/mL | MIC (Serratia marcescens [14]): 2 µg/mL (≈ 6.04 µM) | MIC (Escherichia coli [15]): ≤ 0.5 µg/mL | MIC (Serratia marcescens [16]): 2 µg/mL (≈ 6.04 µM) | MIC (Citrobacter koseri): ≤ 0.5 µg/mL | MIC (Escherichia coli [17]): ≤ 0.5 µg/mL | MIC (Klebsiella oxytoca [18]): ≤ 0.5 µg/mL | MIC (Serratia marcescens [19]): ≤ 0.5 µg/mL | MIC (Acinetobacter): > 2 µg/mL | MIC (Acinetobacter baumannii): > 2 µg/mL

C[C@H]1[C@H](NC(=O)/C(=N\OC(C)(C)C(=O)O)c2csc(N)n2)C(=O)N1S(=O)(=O)O [AZTREONAM]
MIC (Citrobacter youngae): ≤ 1 µg/mL | MIC (Klebsiella pneumoniae [20]): ≤ 1 µg/mL | MIC (Klebsiella pneumoniae [21]): ≤ 1 µg/mL | MIC (Klebsiella pneumoniae [22]): ≤ 1 µg/mL | MIC (Citrobacter amalonaticus [1]): > 16 µg/mL | MIC (Serratia marcescens [2]): ≤ 1 µg/mL | MIC (Klebsiella pneumoniae [23]): ≤ 1 µg/mL | MIC (Citrobacter amalonaticus [3]): ≤ 1 µg/mL | MIC (Klebsiella pneumoniae [24]): ≤ 1 µg/mL | MIC (Morganella morganii [4]): ≤ 1 µg/mL | MIC (Klebsiella pneumoniae [25]): ≤ 1 µg/mL | MIC (Escherichia coli [5]): ≤ 1 µg/mL | MIC (Morganella morganii [6]): ≤ 1 µg/mL | MIC (Klebsiella pneumoniae [26]): ≤ 1 µg/mL | MIC (Klebsiella oxytoca [7]): ≤ 1 µg/mL | MIC (Klebsiella oxytoca [8]): ≤ 1 µg/mL | MIC (Citrobacter amalonaticus [9]): > 16 µg/mL | MIC (Citrobacter freundii): > 16 µg/mL | MIC (Morganella morganii [10]): 4 µg/mL (≈ 9.19 µM) | MIC (Klebsiella pneumoniae [27]): ≤ 1 µg/mL | MIC (Escherichia coli [11]): ≤ 1 µg/mL | MIC (Klebsiella pneumoniae [28]): > 16 µg/mL | MIC (Serratia marcescens [12]): ≤ 1 µg/mL | MIC (Serratia marcescens [13]): ≤ 1 µg/mL | MIC (Serratia marcescens [14]): ≤ 1 µg/mL | MIC (Klebsiella pneumoniae [29]): ≤ 1 µg/mL | MIC (Escherichia coli [15]): ≤ 1 µg/mL | MIC (Klebsiella pneumoniae [30]): ≤ 1 µg/mL | MIC (Serratia marcescens [16]): ≤ 1 µg/mL | MIC (Citrobacter koseri): ≤ 1 µg/mL | MIC (Escherichia coli [17]): ≤ 1 µg/mL | MIC (Klebsiella oxytoca [18]): ≤ 1 µg/mL | MIC (Klebsiella pneumoniae [31]): ≤ 1 µg/mL | MIC (Serratia marcescens [19]): ≤ 1 µg/mL | MIC (Acinetobacter): > 16 µg/mL | MIC (Acinetobacter baumannii): > 16 µg/mL
